≈ marks a conversion by molar mass, not a printed value.
Key:
Tagia sp. = conditions: acute; duration: 14 days; mortality
Oryctolagus sp. = conditions: developmental; development
Bibionidae = conditions: chronic/long-term
Neomysis kadiakensis = conditions: acute; duration: 96 hours; mortality
Mus musculus = conditions: chronic; duration: 18 months; histopathology: neoplastic
Apis mellifera = conditions: acute; duration: 48 hours; oral; unspecified; mortality
Typhlodromus pyri = assay: LR50; higher = less toxic; conditions: acute; duration: 14 days; mortality
Adalia sp. = assay: LR50; higher = less toxic; conditions: not reported; mortality

## CCOC(=O)NCCOc1ccc(Oc2ccccc2)cc1 [Fenoxycarb]
Tagia sp.
  LC50: > 850 mg/kg
Oryctolagus sp.
  NOAEL: 200 mg/kg-day
Oncorhynchus mykiss; acute, duration: 96 hours, mortality
  LC50: 0.66 µg/mL (≈ 2.19 µM)
Oncorhynchus mykiss; chronic/long-term, duration: 60 days, body weight
  NOEC: 0.048 mg/L
Bibionidae
  NOEC: 0.0028 mg/kg
Bibionidae; duration: 28 days
  NOEC: 0.00075 mg/L
Daphnia magna; acute, duration: 48 hours, mortality
  LC50: 0.5 µg/mL (≈ 1.66 µM)
Daphnia magna; chronic/long-term, duration: 21 days, reproduction
  NOEC: 1.6e-06 mg/L
Rattus norvegicus; acute, oral, mortality
  LD50: > 10000 mg/kg-day
Rattus norvegicus; chronic
  NOAEC: 40 mg/kg-day
Rattus norvegicus; subchronic, duration: 13 weeks, oral, organ weight
  NOAEL: 9.7 mg/kg-day
Anas platyrhynchos; acute, oral, unspecified, mortality
  LD50: > 3000 mg/kg-day
Anas platyrhynchos; reproductive
  NOEC: 17.7 mg/kg-day
Anas platyrhynchos; short-term, oral, feed, mortality
  LC50: > 5880 mg/kg-day
Colinus virginianus; acute, oral, diet, mortality
  LC50: 1360 mg/kg-day
Colinus virginianus; acute, oral, mortality
  LD50: > 7000 mg/kg-day
Colinus virginianus; reproduction developmental
  NOEC: 35.9 mg/kg-day
Neomysis kadiakensis
  LC50: 0.35 µg/mL (≈ 1.16 µM)
Mus musculus
  LOAEL: 5.3 mg/kg-day
Apis mellifera
  LD50: > 204 µg/piece
Typhlodromus pyri
  LR50: > 463 g/ha
Adalia sp.
  LR50: > 2.5 g/ha
